Values quoted from earlier work in PubChem BioAssay AID1259409 (Chemical Carcinogenesis Research Information System (CCRIS), 2018).

Tested on: rodent chemically induced tumor inhibition, incidence and multiplicity
Assay: CCRIS tumor inhibitor studies
Details: Dose [Inhibitor]: 0, Route [Inhibitor]: ORAL

SMILES: C[C@]12CC[C@H](O)CC1=CC[C@@H]1[C@@H]2CC[C@]2(C)C(=O)CC[C@@H]12
- tumour outcome (control, treated, inhibition, significance) (Carcinogen: N-BUTYL-N-(4-HYDROXYBUTYL)NITROSAMINE, 3817-11-6, 0.6% IN DIET BEGINNING 3 D POST CARCINOGEN TREATMENT AND CONTINUING FOR 32 WK (STUDY DURATION: 36 WK), Species: RAT, Strain/Sex: F344/MALE, Target Tissue: Type of Lesion: URINARY BLADDER: PAPILLOMA, Dose [Carcinogen]: 0.05% IN DRINKING WATER FOR 4 WK, Promoter: BUTYLATED HYDROXYANISOLE, 25013-16-5): 12/15 (80%), 6/15 (40%), 50%, p<0.05
- tumour outcome (control, treated, inhibition, significance) (Carcinogen: N-METHYL-N'-NITRO-N-NITROSOGUANIDINE, 70-25-7, 55 PPM IN DIET FOR 6 MO BEGINNING 3 MO POST CARCINOGEN TREATMENT (STUDY DURATION: 9 MO), Species: FISH, Strain/Sex: RAINBOW TROUT/MALE,FEMALE, Target Tissue: Type of Lesion: STOMACH: TUMOR, Dose [Carcinogen]: 35 PPM IN WATER FOR 30 MIN ONCE, Promoter: NONE USED): 38%, 34%, 11%, not significant
- tumour outcome (control, treated, inhibition, significance) (Carcinogen: N-METHYL-N'-NITRO-N-NITROSOGUANIDINE, 70-25-7, 55 PPM IN DIET FOR 6 MO BEGINNING 3 MO POST CARCINOGEN TREATMENT (STUDY DURATION: 9 MO), Species: FISH, Strain/Sex: RAINBOW TROUT/MALE,FEMALE, Target Tissue: Type of Lesion: SWIN BLADDER: TUMOR, Dose [Carcinogen]: 35 PPM IN WATER FOR 30 MIN ONCE, Promoter: NONE USED): 13%, 3%, 77%, p<0.05
- tumour outcome (control, treated, inhibition, significance) (Carcinogen: N-METHYL-N'-NITRO-N-NITROSOGUANIDINE, 70-25-7, 111 PPM IN DIET FOR 6 MO BEGINNING 3 MO POST CARCINOGEN TREATMENT (STUDY DURATION: 9 MO), Species: FISH, Strain/Sex: RAINBOW TROUT/MALE,FEMALE, Target Tissue: Type of Lesion: STOMACH: TUMOR, Dose [Carcinogen]: 35 PPM IN WATER FOR 30 MIN ONCE, Promoter: NONE USED): 38%, 27%, 29%, not significant
- tumour outcome (control, treated, inhibition, significance) (Carcinogen: N-METHYL-N'-NITRO-N-NITROSOGUANIDINE, 70-25-7, 111 PPM IN DIET FOR 6 MO BEGINNING 3 MO POST CARCINOGEN TREATMENT (STUDY DURATION: 9 MO), Species: FISH, Strain/Sex: RAINBOW TROUT/MALE,FEMALE, Target Tissue: Type of Lesion: SWIM BLADDER: TUMOR, Dose [Carcinogen]: 35 PPM IN WATER FOR 30 MIN ONCE, Promoter: NONE USED): 13%, 3%, 77%, p<0.05
- tumour outcome (control, treated, inhibition, significance) (Carcinogen: N-METHYL-N'-NITRO-N-NITROSOGUANIDINE, 70-25-7, 222 PPM IN DIET FOR 6 MO BEGINNING 3 MO POST CARCINOGEN TREATMENT (STUDY DURATION: 9 MO), Species: FISH, Strain/Sex: RAINBOW TROUT/MALE,FEMALE, Target Tissue: Type of Lesion: STOMACH: TUMOR, Dose [Carcinogen]: 35 PPM IN WATER FOR 30 MIN ONCE, Promoter: NONE USED): 38%, 31%, 18%, not significant
- tumour outcome (control, treated, inhibition, significance) (Carcinogen: N-METHYL-N'-NITRO-N-NITROSOGUANIDINE, 70-25-7, 222 PPM IN DIET FOR 6 MO BEGINNING 3 MO POST CARCINOGEN TREATMENT (STUDY DURATION: 9 MO), Species: FISH, Strain/Sex: RAINBOW TROUT/MALE,FEMALE, Target Tissue: Type of Lesion: SWIM BLADDER: TUMOR, Dose [Carcinogen]: 35 PPM IN WATER FOR 30 MIN ONCE, Promoter: NONE USED): 13%, 3%, 77%, p<0.05
- tumour outcome (control, treated, inhibition, significance) (Carcinogen: N-METHYL-N'-NITRO-N-NITROSOGUANIDINE, 70-25-7, 444 PPM IN DIET FOR 6 MO BEGINNING 3 MO POST CARCINOGEN TREATMENT (STUDY DURATION: 9 MO), Species: FISH, Strain/Sex: RAINBOW TROUT/MALE,FEMALE, Target Tissue: Type of Lesion: STOMACH: TUMOR, Dose [Carcinogen]: 35 PPM IN WATER FOR 30 MIN ONCE, Promoter: NONE USED): 38%, 36%, 5%, not significant
- tumour outcome (control, treated, inhibition, significance) (Carcinogen: N-METHYL-N'-NITRO-N-NITROSOGUANIDINE, 70-25-7, 444 PPM IN DIET FOR 6 MO BEGINNING 3 MO POST CARCINOGEN TREATMENT (STUDY DURATION: 9 MO), Species: FISH, Strain/Sex: RAINBOW TROUT/MALE,FEMALE, Target Tissue: Type of Lesion: SWIM BLADDER: TUMOR, Dose [Carcinogen]: 35 PPM IN WATER FOR 30 MIN ONCE, Promoter: NONE USED): 13%, 8%, 38%, not significant
- tumour outcome (control, treated, inhibition, significance) (Carcinogen: N-METHYL-N'-NITRO-N-NITROSOGUANIDINE, 70-25-7, 888 PPM IN DIET FOR 6 MO BEGINNING 3 MO POST CARCINOGEN TREATMENT (STUDY DURATION: 9 MO), Species: FISH, Strain/Sex: RAINBOW TROUT/MALE,FEMALE, Target Tissue: Type of Lesion: STOMACH: TUMOR, Dose [Carcinogen]: 35 PPM IN WATER FOR 30 MIN ONCE, Promoter: NONE USED): 38%, 26%, 32%, not significant
- tumour outcome (control, treated, inhibition, significance) (Carcinogen: N-METHYL-N'-NITRO-N-NITROSOGUANIDINE, 70-25-7, 888 PPM IN DIET FOR 6 MO BEGINNING 3 MO POST CARCINOGEN TREATMENT (STUDY DURATION: 9 MO), Species: FISH, Strain/Sex: RAINBOW TROUT/MALE,FEMALE, Target Tissue: Type of Lesion: SWIM BLADDER: TUMOR, Dose [Carcinogen]: 35 PPM IN WATER FOR 30 MIN ONCE, Promoter: NONE USED): 13%, 6%, 54%, not significant
- tumour outcome (control, treated, inhibition, significance) (Carcinogen: N-METHYL-N-NITROSOUREA, 684-93-5, 0.1% IN DIET FOR DURATION OF STUDY BEGINNING 1 WK PRIOR TO CARCINOGEN DOSE (STUDY DURATION: 187 D), Species: RAT, Strain/Sex: SPRAGUE-DAWLEY/FEMALE, Target Tissue: Type of Lesion: MAMMARY GLAND: CARCINOMA, Dose [Carcinogen]: 50 MG/KG ONCE AT 50 D OF AGE, Promoter: NONE USED): 100%, 68%, 32%, p<0.05
- tumour outcome (control, treated, inhibition, significance) (Carcinogen: N-METHYL-N-NITROSOUREA, 684-93-5, 0.2% IN DIET FOR 2 WK BEGINNING 1 WK PRIOR TO CARCINOGEN DOSE (STUDY DURATION: 187 D), Species: RAT, Strain/Sex: SPRAGUE-DAWLEY/FEMALE, Target Tissue: Type of Lesion: MAMMARY GLAND: CARCINOMA, Dose [Carcinogen]: 50 MG/KG ONCE AT 50 D OF AGE, Promoter: NONE USED): 100%, 100%, 0%, not significant
- tumour outcome (control, treated, inhibition, significance) (Carcinogen: N-METHYL-N-NITROSOUREA, 684-93-5, 0.2% IN DIET FOR DURATION OF STUDY BEGINNING 1 WK POST CARCINOGEN DOSE (STUDY DURATION: 180 D), Species: RAT, Strain/Sex: SPRAGUE-DAWLEY/FEMALE, Target Tissue: Type of Lesion: MAMMARY GLAND: CARCINOMA, Dose [Carcinogen]: 50 MG/KG ONCE AT 50 D OF AGE, Promoter: NONE USED): 100%, 67%, 33%, p<0.05
- tumour outcome (control, treated, inhibition, significance) (Carcinogen: N-METHYL-N-NITROSOUREA, 684-93-5, 0.2% IN DIET FOR DURATION OF STUDY BEGINNING 1 WK PRIOR TO CARCINOGEN DOSE (STUDY DURATION: 187 D), Species: RAT, Strain/Sex: SPRAGUE-DAWLEY/FEMALE, Target Tissue: Type of Lesion: MAMMARY GLAND: CARCINOMA, Dose [Carcinogen]: 50 MG/KG ONCE AT 50 D OF AGE, Promoter: NONE USED): 100%, 48%, 52%, p<0.05
